These are literature values, as cited in US20190231691A1, “Biopharma Application Of Micell Technology” (Micell Technologies, Inc., priority 2015, published 2019).

For the series the following is noted: in vivo.

For `CO[C@H]1C[C@@H]2CC[C@@H](C)[C@@](O)(O2)C(=O)C(=O)N2CCCC[C@H]2C(=O)O[C@H]([C@H](C)C[C@@H]2CC[C@@H](O)[C@H](OC)C2)CC(=O)[C@H](C)/C=C(\C)[C@@H](O)[C@@H](OC)C(=O)[C@H](C)C[C@H](C)/C=C/C=C/C=C/1C` [rapamycin], the bioavailability result is given as “less than 14%”.
